Reference: patent US20230085307A1, “PYRIDAZINONE COMPOUND AND HERBICIDE” (NISSAN CHEMICAL CORPORATION, priority 2019, published 2023)

Key:
Chinese sprangletop = experiment: Test Example 3: herbicidal effect by foliage application, Wagner pot (Table 18, symbol D); type: in vivo, chinese sprangletop (Leptochloa chinensis); details: amount of applied herbicide 320 g/ha
How it was run: (§1)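 Plants were sown in alluvial soil held under 0.1–0.5 cm standing water and grown 14 days in a greenhouse at 25–30 °C. An emulsifiable formulation, water-diluted to the set dose, was then sprayed onto the foliage, and effects were scored three weeks later using previously defined criteria.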

velvetleaf [1] = experiment: Test Example 4: herbicidal effect by soil treatment (Table 19, symbol M); type: in vivo, velvetleaf (Abutilon theophrasti); details: amount of applied herbicide 320 g/ha
How it was run: (§2)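 Three weeks of greenhouse growth at 25° C. to 30° C. followed a uniform surface spray of water-diluted emulsion at a predetermined herbicide amount. Seeds had been sown beforehand under about 1.5 cm of sterilized diluvial soil. Grading followed criteria set out in an earlier test.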

southern crabgrass [2] = experiment: Test Example 4: herbicidal effect by soil treatment (Table 19, symbol F); type: in vivo, southern crabgrass (Digitaria ciliaris); details: amount of applied herbicide 320 g/ha
How it was run: as §2

green foxtail [3] = experiment: Test Example 5: herbicidal effect by foliage application, plastic box (Table 20, symbol G); type: in vivo, green foxtail (Setaria viridis); details: foliage application
How it was run: (§3)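 Plants sown in sterilized diluvial soil and grown 14 days in a greenhouse at 25° C to 30° C, then sprayed on the foliage with the compound's emulsion diluted in water to a predetermined herbicide amount. Injury to weeds and crops scored three weeks after application on a visual rating scale.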

chickweed [4] = experiment: Test Example 4: herbicidal effect by soil treatment (Table 19, symbol P); type: in vivo, common chickweed (Stellaria media); details: amount of applied herbicide 320 g/ha
How it was run: as §2

chickweed [5] = experiment: Test Example 5: herbicidal effect by foliage application, plastic box (Table 20, symbol P); type: in vivo, common chickweed (Stellaria media); details: foliage application
How it was run: as §3

redroot pigweed [6] = experiment: Test Example 5: herbicidal effect by foliage application, plastic box (Table 20, symbol N); type: in vivo, redroot pigweed (Amaranthus retroflexus); details: foliage application
How it was run: as §3

rice flat sedge = experiment: Test Example 3: herbicidal effect by foliage application, Wagner pot (Table 18, symbol E); type: in vivo, rice flat sedge (Cyperus iria); details: amount of applied herbicide 320 g/ha
How it was run: as §1

barnyard grass [7] = experiment: Test Example 3: herbicidal effect by foliage application, Wagner pot (Table 18, symbol H); type: in vivo, barnyard grass (Echinochloa crus-galli); details: amount of applied herbicide 320 g/ha
How it was run: as §1

persian speedwell [8] = experiment: Test Example 5: herbicidal effect by foliage application, plastic box (Table 20, symbol R); type: in vivo, Persian speedwell (Veronica persica); details: foliage application
How it was run: as §3

southern crabgrass [9] = experiment: Test Example 5: herbicidal effect by foliage application, plastic box (Table 20, symbol F); type: in vivo, southern crabgrass (Digitaria ciliaris); details: foliage application
How it was run: as §3

green foxtail [10] = experiment: Test Example 4: herbicidal effect by soil treatment (Table 19, symbol G); type: in vivo, green foxtail (Setaria viridis); details: amount of applied herbicide 320 g/ha
How it was run: as §2

Japanese bulrush = experiment: Test Example 1: herbicidal activity, application before weed generation under submerged conditions (Table 16, symbol B); type: in vivo, Japanese bulrush (Schoenoplectus juncoides)
How it was run: (§4)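 Submerged Wagner pots (alluvial soil, 4 cm water) sown with weed seeds and planted with 2.5-leaf rice seedlings; emulsifiable concentrate diluted in water applied to water surface on sowing day. Held in greenhouse at 25-30 °C; injury scored 0-5 by herbicidal rate after three weeks.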

wild oat [11] = experiment: Test Example 4: herbicidal effect by soil treatment (Table 19, symbol I); type: in vivo, wild oat (Avena fatua); details: amount of applied herbicide 320 g/ha
How it was run: as §2

oval-leafed pondweed = experiment: Test Example 1: herbicidal activity, application before weed generation under submerged conditions (Table 16, symbol C); type: in vivo, oval-leafed pondweed (Monochoria vaginalis)
How it was run: as §4

velvetleaf [12] = experiment: Test Example 5: herbicidal effect by foliage application, plastic box (Table 20, symbol M); type: in vivo, velvetleaf (Abutilon theophrasti); details: foliage application
How it was run: as §3

windgrass = experiment: Test Example 4: herbicidal effect by soil treatment (Table 19, symbol L); type: in vivo, windgrass (Apera spica-venti); details: amount of applied herbicide 320 g/ha
How it was run: as §2

wild oat [13] = experiment: Test Example 5: herbicidal effect by foliage application, plastic box (Table 20, symbol I); type: in vivo, wild oat (Avena fatua); details: foliage application
How it was run: as §3

redroot pigweed [14] = experiment: Test Example 4: herbicidal effect by soil treatment (Table 19, symbol N); type: in vivo, redroot pigweed (Amaranthus retroflexus); details: amount of applied herbicide 320 g/ha
How it was run: as §2

persian speedwell [15] = experiment: Test Example 4: herbicidal effect by soil treatment (Table 19, symbol R); type: in vivo, Persian speedwell (Veronica persica); details: amount of applied herbicide 320 g/ha
How it was run: as §2

Italian ryegrass [16] = experiment: Test Example 4: herbicidal effect by soil treatment (Table 19, symbol K); type: in vivo, Italian ryegrass (Lolium multiflorum); details: amount of applied herbicide 320 g/ha
How it was run: as §2

lambsquarters [17] = experiment: Test Example 5: herbicidal effect by foliage application, plastic box (Table 20, symbol O); type: in vivo, lambsquarters (Chenopodium album); details: foliage application
How it was run: as §3

blackgrass [18] = experiment: Test Example 5: herbicidal effect by foliage application, plastic box (Table 20, symbol J); type: in vivo, blackgrass (Alopecurus myosuroides); details: foliage application
How it was run: as §3

barnyard grass [19] = experiment: Test Example 4: herbicidal effect by soil treatment (Table 19, symbol H); type: in vivo, barnyard grass (Echinochloa crus-galli); details: amount of applied herbicide 320 g/ha
How it was run: as §2

lambsquarters [20] = experiment: Test Example 4: herbicidal effect by soil treatment (Table 19, symbol O); type: in vivo, lambsquarters (Chenopodium album); details: amount of applied herbicide 320 g/ha
How it was run: as §2

late watergrass = experiment: Test Example 1: herbicidal activity, application before weed generation under submerged conditions (Table 16, symbol A); type: in vivo, late watergrass (Echinochloa oryzicola)
How it was run: as §4

barnyard grass [21] = experiment: Test Example 5: herbicidal effect by foliage application, plastic box (Table 20, symbol H); type: in vivo, barnyard grass (Echinochloa crus-galli); details: foliage application
How it was run: as §3

blackgrass [22] = experiment: Test Example 4: herbicidal effect by soil treatment (Table 19, symbol J); type: in vivo, blackgrass (Alopecurus myosuroides); details: amount of applied herbicide 320 g/ha
How it was run: as §2

Italian ryegrass [23] = experiment: Test Example 5: herbicidal effect by foliage application, plastic box (Table 20, symbol K); type: in vivo, Italian ryegrass (Lolium multiflorum); details: foliage application
How it was run: as §3

[24] = AAH 320 g/ha, evaluated three weeks after application
[25] = 320 g/ha, three weeks after application
[26] = amount of applied herbicide 320 g/ha

## Cc1nn(C)c(=O)c(-c2c(-c3ccc(OC(F)F)cc3)sc3ccc(F)cc23)c1OS(=O)(=O)N(C)C [2-310]
Chinese sprangletop
  herbicidal effect on D: Chinese sprangletop: 4 (Herbicidal rate of 70% or more and less than 90%)
Velvetleaf [1]
  herbicidal effect on M: velvetleaf: 0 (Herbicidal rate of 5% or less (almost no effect))
Southern crabgrass [2]
  herbicidal effect on F: southern crabgrass: 0 (Herbicidal rate of 5% or less (almost no effect))
Green foxtail [3]; [24]
  G: green foxtail, herbicidal effect (criteria 0-5): 5 (Herbicidal rate of 90% or more (almost completely withered))
Chickweed [4]
  herbicidal effect on P: chickweed: 3 (Herbicidal rate of 40% or more and less than 70%)
Chickweed [5]; [24]
  P: chickweed, herbicidal effect (criteria 0-5): 5 (Herbicidal rate of 90% or more (almost completely withered))
Redroot pigweed [6]; [24]
  N: redroot pigweed, herbicidal effect (criteria 0-5): 5 (Herbicidal rate of 90% or more (almost completely withered))
Rice flat sedge
  herbicidal effect on E: rice flat sedge: 3 (Herbicidal rate of 40% or more and less than 70%)
Barnyard grass [7]
  herbicidal effect on H: barnyard grass: 5 (Herbicidal rate of 90% or more (almost completely withered))
Persian speedwell [8]; [24]
  R: persian speedwell, herbicidal effect (criteria 0-5): 5 (Herbicidal rate of 90% or more (almost completely withered))
Southern crabgrass [9]; [24]
  F: southern crabgrass, herbicidal effect (criteria 0-5): 0 (Herbicidal rate of 5% or less (almost no effect))
Green foxtail [10]
  herbicidal effect on G: green foxtail: 0 (Herbicidal rate of 5% or less (almost no effect))
Japanese bulrush; 320 g/ha applied herbicide
  Herbicidal effect on B: Japanese bulrush (grade 0-5): 2 (Herbicidal rate of 20% or more and less than 40%)
Wild oat [11]
  herbicidal effect on I: wild oat: 0 (Herbicidal rate of 5% or less (almost no effect))
oval-leafed pondweed; 320 g/ha applied herbicide
  Herbicidal effect on C: oval-leafed pondweed (grade 0-5): 0 (Herbicidal rate of 5% or less (almost no effect))
Velvetleaf [12]; [24]
  M: velvetleaf, herbicidal effect (criteria 0-5): 5 (Herbicidal rate of 90% or more (almost completely withered))
windgrass
  herbicidal effect on L: windgrass: 0 (Herbicidal rate of 5% or less (almost no effect))
Wild oat [13]; [24]
  I: wild oat, herbicidal effect (criteria 0-5): 0 (Herbicidal rate of 5% or less (almost no effect))
Redroot pigweed [14]
  herbicidal effect on N: redroot pigweed: 0 (Herbicidal rate of 5% or less (almost no effect))
Persian speedwell [15]
  herbicidal effect on R: persian speedwell: 4 (Herbicidal rate of 70% or more and less than 90%)
Italian ryegrass [16]
  herbicidal effect on K: Italian ryegrass: 0 (Herbicidal rate of 5% or less (almost no effect))
Lambsquarters [17]; [24]
  O: lambsquarters, herbicidal effect (criteria 0-5): 5 (Herbicidal rate of 90% or more (almost completely withered))
Blackgrass [18]; [24]
  J: blackgrass, herbicidal effect (criteria 0-5): 0 (Herbicidal rate of 5% or less (almost no effect))
Barnyard grass [19]
  herbicidal effect on H: barnyard grass: 0 (Herbicidal rate of 5% or less (almost no effect))
Lambsquarters [20]
  herbicidal effect on O: lambsquarters: 0 (Herbicidal rate of 5% or less (almost no effect))
Late watergrass; 320 g/ha applied herbicide
  Herbicidal effect on A: late watergrass (grade 0-5): 0 (Herbicidal rate of 5% or less (almost no effect))
Barnyard grass [21]; [24]
  H: barnyard grass, herbicidal effect (criteria 0-5): 5 (Herbicidal rate of 90% or more (almost completely withered))
Blackgrass [22]
  herbicidal effect on J: blackgrass: 0 (Herbicidal rate of 5% or less (almost no effect))
Italian ryegrass [23]; [24]
  K: Italian ryegrass, herbicidal effect (criteria 0-5): 0 (Herbicidal rate of 5% or less (almost no effect))

## COCCn1nc(C)c(O)c(-c2c(-c3ccc(F)cc3)sc3ccc(F)cc23)c1=O [2-429]
Chinese sprangletop
  herbicidal effect on D: Chinese sprangletop: 0 (Herbicidal rate of 5% or less (almost no effect))
Velvetleaf [1]
  herbicidal effect, M: velvetleaf: 1 (Herbicidal rate of 5% or more and less than 20%)
Southern crabgrass [2]
  herbicidal effect, F: southern crabgrass: 0 (Herbicidal rate of 5% or less (almost no effect))
Green foxtail [3]; [25]
  G: green foxtail, herbicidal effect grade: 0 (Herbicidal rate of 5% or less (almost no effect))
Chickweed [4]
  herbicidal effect, P: chickweed: 0 (Herbicidal rate of 5% or less (almost no effect))
Chickweed [5]; [25]
  P: chickweed, herbicidal effect grade: 5 (Herbicidal rate of 90% or more (almost completely withered))
Redroot pigweed [6]; [25]
  N: redroot pigweed, herbicidal effect grade: 3 (Herbicidal rate of 40% or more and less than 70%)
Rice flat sedge
  herbicidal effect on E: rice flat sedge: 0 (Herbicidal rate of 5% or less (almost no effect))
Barnyard grass [7]
  herbicidal effect on H: barnyard grass: 3 (Herbicidal rate of 40% or more and less than 70%)
Persian speedwell [8]; [25]
  R: persian speedwell, herbicidal effect grade: 4 (Herbicidal rate of 70% or more and less than 90%)
Southern crabgrass [9]; [25]
  F: southern crabgrass, herbicidal effect grade: 2 (Herbicidal rate of 20% or more and less than 40%)
Green foxtail [10]
  herbicidal effect, G: green foxtail: 0 (Herbicidal rate of 5% or less (almost no effect))
Japanese bulrush; [26]
  Herbicidal effect, B: Japanese bulrush: 2 (Herbicidal rate of 20% or more and less than 40%)
Wild oat [11]
  herbicidal effect, I: wild oat: 0 (Herbicidal rate of 5% or less (almost no effect))
oval-leafed pondweed; [26]
  Herbicidal effect, C: oval-leafed pondweed: 3 (Herbicidal rate of 40% or more and less than 70%)
Velvetleaf [12]; [25]
  M: velvetleaf, herbicidal effect grade: 2 (Herbicidal rate of 20% or more and less than 40%)
windgrass
  herbicidal effect, L: windgrass: 0 (Herbicidal rate of 5% or less (almost no effect))
Wild oat [13]; [25]
  I: wild oat, herbicidal effect grade: 0 (Herbicidal rate of 5% or less (almost no effect))
Redroot pigweed [14]
  herbicidal effect, N: redroot pigweed: 3 (Herbicidal rate of 40% or more and less than 70%)
Persian speedwell [15]
  herbicidal effect, R: persian speedwell: 0 (Herbicidal rate of 5% or less (almost no effect))
Italian ryegrass [16]
  herbicidal effect, K: Italian ryegrass: 0 (Herbicidal rate of 5% or less (almost no effect))
Lambsquarters [17]; [25]
  O: lambsquarters, herbicidal effect grade: 0 (Herbicidal rate of 5% or less (almost no effect))
Blackgrass [18]; [25]
  J: blackgrass, herbicidal effect grade: 0 (Herbicidal rate of 5% or less (almost no effect))
Barnyard grass [19]
  herbicidal effect, H: barnyard grass: 0 (Herbicidal rate of 5% or less (almost no effect))
Lambsquarters [20]
  herbicidal effect, O: lambsquarters: 0 (Herbicidal rate of 5% or less (almost no effect))
Late watergrass; [26]
  Herbicidal effect, A: late watergrass: 3 (Herbicidal rate of 40% or more and less than 70%)
Barnyard grass [21]; [25]
  H: barnyard grass, herbicidal effect grade: 0 (Herbicidal rate of 5% or less (almost no effect))
Blackgrass [22]
  herbicidal effect, J: blackgrass: 0 (Herbicidal rate of 5% or less (almost no effect))
Italian ryegrass [23]; [25]
  K: Italian ryegrass, herbicidal effect grade: 0 (Herbicidal rate of 5% or less (almost no effect))
